Literature values as cited in US20050039221A1, “Phenotypic effects of ubiquinone deficiencies and methods of screening thereof” (priority 2001, published 2005).

What was measured:
complex II = conditions: synthetic DMQ2
complex I = conditions: synthetic DMQ2
[1] = rodents

Row | Uptake of dietary UQ, share of the initially ingested ubiquinone [1] | Structure (SMILES) | Function as co-factor for electron transport from complex II (complex II) | Function as co-factor for electron transport from complex I (complex I)
1 | – | COC1=CC(=O)C(C)=C(C/C=C(\C)CCC=C(C)C)C1=O [DMQ2] | more poorly | can function as a co-factor
2 | 2-3% | COC1=C(OC)C(=O)C(C/C=C(\C)CC/C=C(\C)CC/C=C(\C)CC/C=C(\C)CC/C=C(\C)CC/C=C(\C)CC/C=C(\C)CC/C=C(\C)CC/C=C(\C)CCC=C(C)C)=C(C)C1=O [UQ, Ubiquinone] | – | –
